The source made the active and inactive calls.
Columns and labels:
[1] = molecular target: T1, Heat shock factor protein 1 (Mus musculus, UniProt P38532); assay: enhancement of HSF1-driven luciferase signal – cell-based, NIH3T3, luminescence, dose retest, confirmation (AID 435004); type: functional;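 note: stress induced by proteasome inhibitor MG132 added 30 min after compound; luciferase reporter driven by HSF1 response element in NIH3T3 cells; actives raise luminescence as potentiators of the MG132 stress response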
T1 sequence (P38532 whole entry): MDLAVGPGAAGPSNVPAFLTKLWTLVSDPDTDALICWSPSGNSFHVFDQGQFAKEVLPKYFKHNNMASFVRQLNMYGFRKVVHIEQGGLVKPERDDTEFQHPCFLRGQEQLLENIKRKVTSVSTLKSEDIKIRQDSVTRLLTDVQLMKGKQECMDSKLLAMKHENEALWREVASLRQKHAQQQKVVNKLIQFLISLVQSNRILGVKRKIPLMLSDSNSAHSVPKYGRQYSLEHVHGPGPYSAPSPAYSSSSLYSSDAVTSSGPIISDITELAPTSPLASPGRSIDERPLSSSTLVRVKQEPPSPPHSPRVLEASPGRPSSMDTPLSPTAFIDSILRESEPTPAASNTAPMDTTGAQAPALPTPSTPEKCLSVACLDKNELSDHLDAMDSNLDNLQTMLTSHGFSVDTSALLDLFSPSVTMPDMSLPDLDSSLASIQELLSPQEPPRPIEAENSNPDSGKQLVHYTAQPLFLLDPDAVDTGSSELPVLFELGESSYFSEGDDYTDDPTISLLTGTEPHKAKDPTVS

[2] = molecular target: T2, Corticotropin-releasing factor receptor 2/Corticotropin-releasing factor-binding protein (Homo sapiens, UniProt P24387+Q13324); assay: activators of CRF receptor 2 with binding protein – uHTS hits, confirmation (AID 602473); type: functional; conditions: read-out: EC50_Mean
T2 sequence (Q13324 whole entry): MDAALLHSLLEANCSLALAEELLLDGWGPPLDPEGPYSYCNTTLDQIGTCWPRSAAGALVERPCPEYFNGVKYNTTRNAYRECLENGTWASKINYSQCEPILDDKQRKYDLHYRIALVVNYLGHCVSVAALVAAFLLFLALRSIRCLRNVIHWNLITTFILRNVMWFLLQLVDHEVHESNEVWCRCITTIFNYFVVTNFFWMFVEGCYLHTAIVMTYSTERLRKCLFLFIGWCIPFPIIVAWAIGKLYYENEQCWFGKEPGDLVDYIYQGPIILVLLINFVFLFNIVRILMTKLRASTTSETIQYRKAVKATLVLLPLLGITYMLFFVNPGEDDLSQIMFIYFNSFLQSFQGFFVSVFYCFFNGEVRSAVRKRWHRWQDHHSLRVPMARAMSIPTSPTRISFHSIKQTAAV
T2 sequence (P24387 whole entry): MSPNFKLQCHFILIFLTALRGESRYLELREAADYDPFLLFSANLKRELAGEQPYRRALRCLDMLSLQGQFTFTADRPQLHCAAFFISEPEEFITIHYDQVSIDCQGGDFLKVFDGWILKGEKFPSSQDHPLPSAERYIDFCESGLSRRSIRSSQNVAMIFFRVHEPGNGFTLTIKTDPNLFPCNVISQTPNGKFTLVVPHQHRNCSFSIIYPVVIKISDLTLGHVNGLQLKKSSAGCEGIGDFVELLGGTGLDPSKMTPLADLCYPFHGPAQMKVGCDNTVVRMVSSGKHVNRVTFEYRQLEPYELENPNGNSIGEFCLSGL

[3] = molecular target: T2, Corticotropin-releasing factor receptor 2/Corticotropin-releasing factor-binding protein; assay: Dose Response confirmation of uHTS hits for small molecule antagonists of the CRF-binding protein and CRF-R2 receptor complex.; type: functional; conditions: read-out: IC50_Mean
[4] = molecular target: T3, Rac GTPase-activating protein 1 (Homo sapiens, UniProt Q9H0H5); assay: blockers of MgcRacGAP-driven Rac1 GTP hydrolysis – biochemical, ADP Hunter fluorescence, primary and confirmatory, confirmation (AID 624330); type: functional
T3 sequence (Q9H0H5 whole entry): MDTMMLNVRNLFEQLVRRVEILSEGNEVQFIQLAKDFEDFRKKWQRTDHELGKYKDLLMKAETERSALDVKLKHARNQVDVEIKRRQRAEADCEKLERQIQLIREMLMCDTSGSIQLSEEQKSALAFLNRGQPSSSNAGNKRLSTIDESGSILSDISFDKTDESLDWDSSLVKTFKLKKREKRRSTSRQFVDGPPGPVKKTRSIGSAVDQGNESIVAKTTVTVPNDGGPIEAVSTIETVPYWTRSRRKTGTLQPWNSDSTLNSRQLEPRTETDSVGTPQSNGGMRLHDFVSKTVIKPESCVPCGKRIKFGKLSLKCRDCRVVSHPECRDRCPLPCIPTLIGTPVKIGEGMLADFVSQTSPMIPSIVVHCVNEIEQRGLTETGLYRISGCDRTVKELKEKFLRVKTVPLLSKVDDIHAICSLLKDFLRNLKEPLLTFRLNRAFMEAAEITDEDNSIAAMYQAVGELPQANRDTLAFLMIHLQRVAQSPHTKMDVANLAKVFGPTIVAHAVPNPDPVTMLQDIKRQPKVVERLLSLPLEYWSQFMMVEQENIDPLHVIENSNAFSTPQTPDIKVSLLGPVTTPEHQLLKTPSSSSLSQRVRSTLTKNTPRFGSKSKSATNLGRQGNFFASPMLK

Cytochrome P450 3A4 = Cytochrome P450 3A4 (Homo sapiens, UniProt P08684);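 note: CYP3A4 tested as one member of a cytochrome P450 panel screen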
Cytochrome P450 1A2 = molecular target: T4, Cytochrome P450 1A2 (Homo sapiens, UniProt P05177);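 note: PubChem cytochrome P450 panel assay, CYP1A2 panel member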
T4 sequence (P05177 whole entry): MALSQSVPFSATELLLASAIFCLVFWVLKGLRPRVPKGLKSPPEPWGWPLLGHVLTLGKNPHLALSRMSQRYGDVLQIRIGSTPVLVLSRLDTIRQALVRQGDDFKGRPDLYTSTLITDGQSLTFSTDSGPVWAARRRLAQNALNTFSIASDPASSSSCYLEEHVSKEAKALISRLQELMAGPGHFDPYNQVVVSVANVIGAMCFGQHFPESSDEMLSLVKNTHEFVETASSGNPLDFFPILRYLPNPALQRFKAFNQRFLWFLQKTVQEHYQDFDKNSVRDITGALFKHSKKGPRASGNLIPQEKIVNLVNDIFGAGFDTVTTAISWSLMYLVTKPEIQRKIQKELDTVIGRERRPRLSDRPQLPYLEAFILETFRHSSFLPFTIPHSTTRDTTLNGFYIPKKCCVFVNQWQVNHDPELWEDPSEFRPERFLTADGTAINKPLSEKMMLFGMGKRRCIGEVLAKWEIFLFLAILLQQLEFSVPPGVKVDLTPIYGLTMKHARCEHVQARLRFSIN

[5] = alpha-synuclein stem-loop luciferase translation blockers – H4 neuroglioma cells, luminescence, confirmation (AID 1988); type: functional, cell-based
[6] = Luminescence Cell-Based Dose Response HTS to Identify Inhibitors of 5'UTR Stem-Loop Driven Prion Protein mRNA Translation in H4 Neuroglioblastoma Cells. [Related pubchem assays: 1827 (Project Summary), 1813 (Primary HTS)]; type: functional
[7] = luciferase reporter signal suppression in cells – H4 neuroglioma cells, luminescence, dose response (AID 1990); type: functional, cell-based
Cytochrome P450 2C19 = Cytochrome P450 2C19 (Homo sapiens, UniProt P33261); assay: Cytochrome panel assay with activity outcomes. Panel member name: p450-cyp2c19 Compounds with AC50 equal or less than 10 uM are considered active; type: functional; conditions: read-out: AC50
Cytochrome P450 2C9 = Cytochrome P450 2C9 (Homo sapiens, UniProt P11712)
[8] = Trypanosoma cruzi growth suppression in host cells – NIH3T3 host cells, beta-gal luminescence, confirmation (AID 2044); type: functional, cell-based;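 note: intracellular parasites grown in NIH/3T3 mouse fibroblasts as host cells; luminescent beta-galactosidase reporter signal from transgenic T. cruzi replicating inside host cells; inhibitors lower the luminescence signal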
[9] = NIH3T3 cell viability loss – ATP luminescence, mouse fibroblasts, counter-screen, dose response (AID 2010); type: functional, cell-based;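 note: cells exposed to compound for about 90 hours before reading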

Chain of Cytochrome P450 2C19 (P33261 whole entry): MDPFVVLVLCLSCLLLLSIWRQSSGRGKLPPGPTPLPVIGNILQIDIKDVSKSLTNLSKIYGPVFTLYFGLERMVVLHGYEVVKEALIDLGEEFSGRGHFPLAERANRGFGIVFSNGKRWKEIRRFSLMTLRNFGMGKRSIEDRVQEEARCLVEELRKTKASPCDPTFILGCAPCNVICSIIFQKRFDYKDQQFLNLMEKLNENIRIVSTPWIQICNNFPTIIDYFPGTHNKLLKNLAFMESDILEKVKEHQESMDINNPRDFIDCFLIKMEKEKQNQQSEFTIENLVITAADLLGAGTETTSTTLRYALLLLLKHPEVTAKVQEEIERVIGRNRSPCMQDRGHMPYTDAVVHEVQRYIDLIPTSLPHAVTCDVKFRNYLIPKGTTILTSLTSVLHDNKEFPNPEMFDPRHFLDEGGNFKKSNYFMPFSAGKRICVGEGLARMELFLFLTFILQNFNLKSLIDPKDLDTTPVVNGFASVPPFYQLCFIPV
Chain of Cytochrome P450 3A4 (P08684 whole entry): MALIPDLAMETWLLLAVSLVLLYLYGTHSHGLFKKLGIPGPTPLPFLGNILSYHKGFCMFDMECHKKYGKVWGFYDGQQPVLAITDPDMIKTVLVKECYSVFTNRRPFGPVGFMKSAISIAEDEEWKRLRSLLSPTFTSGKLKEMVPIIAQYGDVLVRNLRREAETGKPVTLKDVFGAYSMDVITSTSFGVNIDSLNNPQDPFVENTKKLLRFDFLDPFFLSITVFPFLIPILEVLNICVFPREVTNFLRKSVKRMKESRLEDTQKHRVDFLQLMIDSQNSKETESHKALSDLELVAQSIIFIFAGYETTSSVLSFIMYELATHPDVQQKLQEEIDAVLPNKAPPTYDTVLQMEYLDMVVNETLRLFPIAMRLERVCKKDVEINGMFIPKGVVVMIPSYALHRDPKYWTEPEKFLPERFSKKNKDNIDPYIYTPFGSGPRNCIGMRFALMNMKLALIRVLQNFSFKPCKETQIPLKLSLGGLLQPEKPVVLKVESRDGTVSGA
Chain of Cytochrome P450 2C9 (P11712 whole entry): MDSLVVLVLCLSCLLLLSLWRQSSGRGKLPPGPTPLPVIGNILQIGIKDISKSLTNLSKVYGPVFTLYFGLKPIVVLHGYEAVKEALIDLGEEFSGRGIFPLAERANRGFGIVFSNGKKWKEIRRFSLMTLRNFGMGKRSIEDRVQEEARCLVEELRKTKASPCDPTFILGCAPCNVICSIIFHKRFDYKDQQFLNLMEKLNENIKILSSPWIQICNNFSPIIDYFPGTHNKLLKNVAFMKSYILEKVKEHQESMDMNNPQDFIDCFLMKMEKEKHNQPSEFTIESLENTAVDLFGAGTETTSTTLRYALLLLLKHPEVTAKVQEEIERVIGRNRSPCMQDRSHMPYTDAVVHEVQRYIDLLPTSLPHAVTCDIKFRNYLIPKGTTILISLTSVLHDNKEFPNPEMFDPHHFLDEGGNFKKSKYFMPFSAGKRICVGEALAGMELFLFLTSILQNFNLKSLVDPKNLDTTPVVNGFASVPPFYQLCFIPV

Compound: Cc1nn(C(C)C(=O)NCCCN2CCCCC2C)c(=O)c2c1sc1ccccc12 (stereo not drawn)
- EC50 [1]: > 260 µM (inactive)

Compound: COc1ccc(CNC2CCSc3ccccc32)cc1OC (stereo not drawn)
- EC50 [1]: > 260 µM (inactive)

Compound: Cc1cccc(S(=O)(=O)NCCC(=O)OC(C)C(=O)NC(=O)NC2CCCCC2)c1 (stereo not drawn)
- EC50 [1]: > 260 µM (inactive)

Compound: Cc1cc(F)c(F)c(C(=O)N2CCOCC2)c1Cl
- EC50 [1]: > 260 µM (inactive)

Compound: CCN1CCSc2ccc(C(=O)NCc3cccc(Br)c3)cc21
- EC50 [1]: > 260 µM (inactive)

Compound: COc1ccc(Nc2ccccc2)c(C)c1
- EC50 [2]: > 53 µM (inactive)
- IC50 [3]: > 47.1 µM (inactive)
- IC50 [4]: 44.9 µM (active)

Compound: CC(=O)Nc1ccc2c(c1)N(C(=O)CN(C)C)c1ccccc1CC2
- EC50 [1]: > 260 µM (inactive)

Compound: COC(=O)[C@@]1(Cc2ccc(OC)cc2)[C@H]2c3cc(C(=O)N4CCCC4)n(Cc4ccc(Cl)c(C(F)(F)F)c4)c3C[C@H]2CN1C(=O)c1ccccc1
- AC50 (Cytochrome P450 3A4): 1.26 µM (inconclusive)
- AC50 (Cytochrome P450 1A2): 12.6 µM (inconclusive)

Compound: O=C(Nc1ccc2c(c1)OCO2)c1nn(-c2ccccc2)c(=O)c2ccccc12
- EC50 [5]: > 120 µM (not active)
- EC50 [6]: 24 µM (active)
- EC50 [7]: > 120 µM (not active)

Compound: Brc1ccccc1Cn1c(-c2cncs2)nc2ccccc21
- EC50 [5]: > 120 µM (not active)
- EC50 [6]: > 120 µM (not active)
- EC50 [7]: 17.1 µM (active)

Compound: O=C(c1ccco1)N(Cc1ccc([N+](=O)[O-])cc1)c1ccc(Br)cc1
- EC50 [1]: > 260 µM (inactive)

Compound: Cc1ccc(-n2ccc(=O)c(-c3ccnc(SCc4cccc(Cl)c4)n3)n2)cc1
- AC50 (Cytochrome P450 1A2): 14.1 µM (inconclusive)

Compound: N#Cc1ccsc1NC(=O)COC(=O)CCCSc1nc2ccccc2s1
- EC50 [5]: 16.1 µM (active)
- EC50 [6]: > 120 µM (not active)
- EC50 [7]: > 120 µM (not active)

Compound: O=C(CSCc1ccccc1)Nc1cc([N+](=O)[O-])ccc1F
- EC50 [2]: > 53 µM (inactive)
- IC50 [3]: > 47.1 µM (inactive)

Compound: COC(=O)[C@@]1(Cc2ccc(F)cc2)[C@H]2c3cc(C(=O)N(C)C)n(Cc4cccc5ccccc45)c3C[C@H]2CN1C(=O)c1ccccc1
- AC50 (Cytochrome P450 1A2): 6.31 µM (inconclusive)

Compound: COc1ccc(C(=O)CC(=O)C(=O)Nc2cc(OC)c(OC)c(OC)c2)cc1
- EC50 [1]: > 260 µM (inactive)

Compound: COc1ccc([N+](=O)[O-])cc1N(CC(=O)NCCCOC(C)C)S(C)(=O)=O
- EC50 [2]: > 53 µM (inactive)
- IC50 [3]: > 47.1 µM (inactive)

Compound: CCOc1ccc(N(CC(=O)NCC2CCCO2)C(=O)CCC(=O)Nc2nccs2)cc1 (stereo not drawn)
- EC50 [2]: > 53 µM (inactive)
- IC50 [3]: > 47.1 µM (inactive)

Compound: Cc1ccc(C(=O)Cn2nc(C(=O)O)c3ccccc3c2=O)cc1C
- EC50 [1]: > 260 µM (inactive)

Compound: COC(=O)C1=C(C)N(Cc2ccc(C)cc2)C(=O)/C1=C\c1cc(OC)c(OC)c(OC)c1
- EC50 [1]: 11.6 µM (active)

Compound: COc1cccc(Cn2c(=O)c(CCc3ccccc3)nc3cncnc32)c1
- AC50 (Cytochrome P450 2C19): 25.1 µM (inconclusive)
- AC50 (Cytochrome P450 1A2): 12.6 µM (inconclusive)
- AC50 (Cytochrome P450 2C9): 12.6 µM (inconclusive)

Compound: Nc1c(S(=O)(=O)c2ccccc2)c2nc3ccccc3nc2n1Cc1ccco1
- AC50 (Cytochrome P450 1A2): 22.4 µM (inconclusive)

Compound: COc1ccc(N(CC(=O)Nc2ccc(S(=O)(=O)N3CCCCC3)cc2)S(C)(=O)=O)cc1OC
- EC50 [5]: > 120 µM (not active)
- EC50 [6]: > 120 µM (not active)
- EC50 [7]: > 120 µM (not active)

Compound: O=c1c(-c2ccc(Cl)cc2)nc2cnc(N3CCNCC3)nc2n1Cc1ccc(F)cc1
- AC50 (Cytochrome P450 3A4): 12.6 µM (inconclusive)
- AC50 (Cytochrome P450 2C19): 39.8 µM (inconclusive)
- AC50 (Cytochrome P450 1A2): 15.8 µM (inconclusive)

Compound: Cc1nnsc1-c1onc(C)c1C(=O)O/N=C/c1ccc(Cl)cc1
- EC50 [2]: > 53 µM (inactive)
- IC50 [3]: > 47.1 µM (inactive)

Compound: N[C@H](C(=O)O)C1[C@H](C(=O)O)[C@H]1C(=O)O (stereo partly drawn)
- AC50 (Cytochrome P450 2C19): 31.6 µM (inconclusive)
- AC50 (Cytochrome P450 1A2): 31.6 µM (inconclusive)

Compound: Cc1cccn2c(=O)nc(SCC(=O)N3N=C(c4cccs4)CC3c3ccc(F)cc3)nc12 (stereo not drawn)
- EC50 [1]: > 260 µM (inactive)
- EC50 [8]: 1.48 µM (active)
- EC50 [9]: 11.6 µM (active)

Compound: Cn1c(C(=O)OC(C(=O)NC(C)(C)C)c2cccnc2)cc2sccc21 (stereo not drawn)
- EC50 [1]: > 260 µM (inactive)
- EC50 [8]: 1.23 µM (active)
- EC50 [9]: 48.4 µM (active)

Compound: Cc1cc2occ(CC(=O)NCc3cccs3)c2cc1C(C)C
- EC50 [1]: > 260 µM (inactive)

Compound: CSc1nsc(/C=C/Nc2ccc(Cl)cc2)c1C#N
- AC50 (Cytochrome P450 2C19): 3.55 µM (inconclusive)
- AC50 (Cytochrome P450 1A2): 5.62 µM (inconclusive)

Compound: COCCN(C(=O)C(C)C)c1nnc(-c2ccc(C)cc2)s1
- AC50 (Cytochrome P450 1A2): 12.6 µM (inconclusive)

Compound: O=c1c(-c2ccccc2)nc2cnc(N3CCNCC3)nc2n1Cc1ccc(F)cc1
- AC50 (Cytochrome P450 2C19): 31.6 µM (inconclusive)
- AC50 (Cytochrome P450 1A2): 20 µM (inconclusive)

Source: ChEMBL document CHEMBL1201862, “PubChem BioAssay data set” (2004)
